Data published in US9051310B2, “Nicotinamide derivative or salt thereof” (FUJIFILM Corporation, priority 2011, dated 2015).

Legend:
[1] = biological target: T1, glutathione S-transferase (GST)-linked full-length human Syk protein (Homo sapiens, UniProt P43405); experiment: Syk enzyme assay; format: biochemical; conditions: 0.83 nM Syk, time-resolved fluorescence; read-out: IC50 of Syk-inhibitory activity
T1 construct: glutathione S-transferase (GST)-linked full-length human Syk protein; purchased Carna Biosciences; host or cells: Baculovirus expression system
How it was run: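 Phosphotyrosine on a biotin-peptide substrate (0.5 μM) was read by time-resolved fluorescence at 615 and 665 nm with Eu-anti-pTyr antibody and APC-streptavidin after 1 h EDTA stop.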

[2] = tested on: THP-1 cells (TNFα secretion on human IgG-coated plate); experiment: TNFα generation assay; format: cell-based; conditions: IFN-γ differentiated THP-1 cells, 7 hours, AlphaLISA, read-out: IC50 of TNFα generation inhibitory activity
How it was run: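 THP-1 cells were differentiated with 10 ng/ml IFN-γ for 2 days, then preincubated with compound for 30 min at room temperature. They were then plated at 5×10^4 cells/well on plates coated with human IgG (10 μg/ml). TNFα secreted over 7 h of culture was quantified by AlphaLISA.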

[3] = tested on: mouse thrombocytopenia induced by anti-mouse CD41 antibody; experiment: Mouse thrombocytopenia model; format: in vivo; conditions: Platelet, female BALB/c mice, 50 mg/kg 1 hour before anti-CD41 antibody, blood sampling 4 hours after antibody, read-out: improvement of platelet count compared with the control group
Protocol: Test compounds were tested to examine effects upon mouse thrombocytopenia. Each test compound (50 mg/kg) was administered to 5- to 7-week-old female BALB/c mice (Charles River Laboratories Japan, Inc.). One hour thereafter, an anti-mouse CD41 ([…]) antibody (SCB) (1 μg (200 μl)) was intravenously administered to each mouse so as to induce thrombocytopenia. Four hours after administration of the anti-CD41 antibody, blood sampling from the postcava was performed. The platelet count was determined using an automated hematology analyzer.

[4] = tested on: THP-1 cells (phagocytosis of opsonized Escherichia coli); experiment: Antibody-dependent phagocytosis assay; format: cell-based; conditions: Homo sapiens; IFNγ differentiated THP-1 cells, opsonized pHrodo Escherichia coli, 3 hours; read-out: IC50 upon phagocytosis inhibition
How it was run: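 THP-1 cells were differentiated to macrophage-like cells with 10 ng/ml IFNγ for 2 days, then treated with test compound for 30 min at room temperature. pHrodo-labeled E. coli opsonized with anti-E. coli antibody were added for 3 h at 37° C. Phagocytosis by viable (Calcein AM-positive) cells was quantified by imaging.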

| Structure (SMILES) | IC50 [1] [nM] | IC50 [2] [nM] | change in vivo at 50 mg/kg [3] [%] | IC50 [4] [nM] |
| --- | --- | --- | --- | --- |
| Cc1cc(Nc2nc(N[C@H](CC(C)C)[C@H](C)N)c(F)cc2C(N)=O)cnc1C [Example 2-18, 6-(((2S,3R)-2-amino-5-methylhexan-3-yl)amino)-2-((5,6-dimethylpyridin-3-yl)amino)-5-fluoronicotinamide] | < 10 | 65 to 130 | ≥ 50 | < 1000 |
| COc1cc(Nc2nc(N[C@H](C3CCC3)[C@H](C)N)c(F)cc2C(N)=O)cc(OC)c1 [Example 2-28] | < 10 | 65 to 130 | ≥ 50 | < 1000 |
| COc1ccc(Nc2nc(N[C@H](C3CC3)[C@H](C)N)c(F)cc2C(N)=O)cc1OC [Example 2-48, 6-(((1R,2S)-2-amino-1-cyclopropylpropyl)amino)-2-((3,4-dimethoxyphenyl)amino)-5-fluoronicotinamide] | < 10 | 65 to 130 | ≥ 50 | < 1000 |
| C[C@H](N)[C@H](Nc1nc(Nc2cnc(N3CCOCC3)c(F)c2)c(C(N)=O)cc1F)C1CCC1 [Example 2-77, 6-(((1R,2S)-2-amino-1-cyclobutylpropyl)amino)-5-fluoro-2-((5-fluoro-6-morpholinopyridin-3-yl)amino)nicotinamide] | 10 to 50 | 130 to 200 | ≥ 50 | < 1000 |
| CCC[C@@H](Nc1nc(Nc2ccc3c(c2)c(N(C)C)nn3C)c(C(N)=O)cc1F)[C@H](C)N [Example 2-87, 6-(((2S,3R)-2-aminohexan-3-yl)amino)-2-((3-(dimethylamino)-1-methyl-1H-indazol-5-yl)amino)-5-fluoronicotinamide] | < 10 | 130 to 200 | ≥ 50 | 1000 to 3000 |
| CC[C@H](N)[C@@H](C)Nc1nc(Nc2ccc3c(c2)c(N(C)C)nn3C)c(C(N)=O)cc1F [Example 2-91, 6-(((2R,3S)-3-aminopentan-2-yl)amino)-2-((3-(dimethylamino)-1-methyl-1H-indazol-5-yl)amino)-5-fluoronicotinamide] | 10 to 50 | 130 to 200 | ≥ 50 | 1000 to 3000 |
| CC[C@H](N)[C@@H](C)Nc1nc(Nc2cccc3c2cnn3CC)c(C(N)=O)cc1F [Example 2-100, 6-(((2R,3S)-3-aminopentan-2-yl)amino)-2-((1-ethyl-1H-indazol-4-yl)amino)-5-fluoronicotinamide] | < 10 | 130 to 200 | ≥ 50 | 1000 to 3000 |
| COCCn1nc(OC)c2cc(Nc3nc(N[C@@H]4CCCC[C@@H]4N)c(F)cc3C(N)=O)ccc21 [Example 2-123, 6-(((1R,2S)-2-aminocyclohexyl)amino)-5-fluoro-2-((3-methoxy-1-(2-methoxyethyl)-1H-indazol-5-yl)amino)nicotinamide] | < 10 | 65 to 130 | ≥ 50 | < 1000 |
| Cc1ncc(Nc2nc(N[C@@H]3CCCC[C@@H]3N)c(F)cc2C(N)=O)cc1F [Example 2-142, 6-(((1R,2S)-2-aminocyclohexyl)amino)-5-fluoro-2-((5-fluoro-6-methylpyridin-3-yl)amino)nicotinamide] | 10 to 50 | 65 to 130 | ≥ 50 | < 1000 |
| COCCn1nc(OC(F)F)c2cc(Nc3nc(N[C@@H]4CCCC[C@@H]4N)c(F)cc3C(N)=O)ccc21 [Example 2-174, 6-(((1R,2S)-2-aminocyclohexyl)amino)-2-((3-(difluoromethoxy)-1-(2-methoxyethyl)-1H-indazol-5-yl)amino)-5-fluoronicotinamide] | < 10 | 130 to 200 | ≥ 50 | < 1000 |
| C[C@H](N)[C@H](Nc1nc(Nc2cc(F)c3c(c2)c(N(C)C)nn3C)c(C(N)=O)cc1F)C1CC1 [Example 2-188, 6-(((1R,2S)-2-amino-1-cyclopropylpropyl)amino)-2-((3-(dimethylamino)-7-fluoro-1-methyl-1H-indazol-5-yl)amino)-5-fluoronicotinamide] | < 10 | < 65 | ≥ 50 | < 1000 |
| COC[C@@H](Nc1nc(Nc2cc(F)c3c(c2)c(N(C)C)nn3C)c(C(N)=O)cc1F)[C@H](C)N [Example 2-193, 6-(((2S,3S)-3-amino-1-methoxybutan-2-yl)amino)-2-((3-(dimethylamino)-7-fluoro-1-methyl-1H-indazol-5-yl)amino)-5-fluoronicotinamide] | 10 to 50 | 130 to 200 | ≥ 50 | 1000 to 3000 |
| CN(C)c1nn(C)c2c(F)cc(Nc3nc(N[C@@H]4CCOC[C@@H]4N)c(F)cc3C(N)=O)cc12 [Example 2-213, 6-(((3R,4R)-3-aminotetrahydro-2H-pyran-4-yl)amino)-2-((3-(dimethylamino)-7-fluoro-1-methyl-1H-indazol-5-yl)amino)-5-fluoronicotinamide] | < 10 | 65 to 130 | ≥ 50 | < 1000 |
| CCC[C@@H](Nc1nc(Nc2cnc3c(c2)c(OC)nn3C)c(C(N)=O)cc1F)[C@H](C)N [Example 2-252, 6-(((2S,3R)-2-aminohexan-3-yl)amino)-5-fluoro-2-((3-methoxy-1-methyl-1H-pyrazolo[3,4-b]pyridin-5-yl)amino)nicotinamide] | < 10 | 130 to 200 | ≥ 50 | < 1000 |
| COCCn1ncc2cc(Nc3nc(N[C@H](C4CC4)[C@H](C)N)c(F)cc3C(N)=O)ccc21 [Example 2-265, 6-(((1R,2S)-2-amino-1-cyclopropylpropyl)amino)-5-fluoro-2-((1-(2-methoxyethyl)-1H-indazol-5-yl)amino)nicotinamide] | < 10 | 65 to 130 | ≥ 50 | < 1000 |
| COC[C@@H](Nc1nc(Nc2cc(OC)cc(OC)c2)c(C(N)=O)cc1F)[C@H](C)N [Example 2-267, 6-(((2S,3S)-3-amino-1-methoxybutan-2-yl)amino)-2-((3,5-dimethoxyphenyl)amino)-5-fluoronicotinamide] | < 10 | 65 to 130 | ≥ 50 | 1000 to 3000 |
| COCCn1ncc2c(Nc3nc(N[C@@H]4CCCC[C@@H]4N)c(F)cc3C(N)=O)cccc21 [Example 2-302, 6-(((1R,2S)-2-aminocyclohexyl)amino)-5-fluoro-2-((1-(2-methoxyethyl)-1H-indazol-4-yl)amino)nicotinamide] | < 10 | 130 to 200 | ≥ 50 | 1000 to 3000 |
| CCn1ncc2c(Nc3nc(N[C@@H]4CCOC[C@@H]4N)c(F)cc3C(N)=O)cccc21 [Example 2-330, 6-(((3R,4R)-3-aminotetrahydro-2H-pyran-4-yl)-amino)-2-((1-ethyl-1H-indazol-4-yl)amino)-5-fluoronicotinamide] | < 10 | 65 to 130 | ≥ 50 | < 1000 |
| COCCn1ncc2c(Nc3nc(N[C@@H]4CCOC[C@@H]4N)c(F)cc3C(N)=O)cccc21 [Example 2-331, 6-(((3R,4R)-3-aminotetrahydro-2H-pyran-4-yl)amino)-5-fluoro-2-((1-(2-methoxyethyl)-1H-indazol-4-yl)amino)nicotinamide] | < 10 | – | ≥ 50 | 1000 to 3000 |
| Cn1nc(OC(F)F)c2cc(Nc3nc(N[C@@H]4CCOC[C@@H]4N)c(F)cc3C(N)=O)ccc21 [Example 2-348, 6-(((3R,4R)-3-aminotetrahydro-2H-pyran-4-yl)amino)-2-((3-(difluoromethoxy)-1-methyl-1H-indazol-5-yl)amino)-5-fluoronicotinamide] | < 10 | 130 to 200 | ≥ 50 | < 1000 |
| COCCn1nc(OC(F)F)c2cc(Nc3nc(N[C@@H]4CCOC[C@@H]4N)c(F)cc3C(N)=O)ccc21 [Example 2-352, 6-(((3R,4R)-3-aminotetrahydro-2H-pyran-4-yl)amino)-2-((3-(difluoromethoxy)-1-(2-methoxyethyl)-1H-indazol-5-yl)amino)-5-fluoronicotinamide] | < 10 | – | ≥ 50 | < 1000 |
| CC[C@H](N)[C@H](Nc1nc(Nc2cnc(C)c(-n3nccn3)c2)c(C(N)=O)cc1F)C1CC1 [Example 2-358, 6-(((1R,2S)-2-amino-1-cyclopropylbutyl)amino)-5-fluoro-2-((6-methyl-5-(2H-1,2,3-triazol-2-yl)pyridin-3-yl)amino)nicotinamide] | 10 to 50 | – | ≥ 50 | 1000 to 3000 |
